Tests used:
Type in all cases: in vivo
NGF = assay: STUDY B: serum NGF assay by ELSA (Enzyme-Linked Immunosorbent Assay); conditions: children with ADHD and allergies; po qam for 2 weeks; NGF highest on placebo
Protocol: (§1) In general, two studies were conducted to better understand the association between the allergy/immune system and the central nervous system. STUDY A, tested the effects of cetirizine (namely ZYRTEC), cetirizine and methylphenidate (namely RITALIN SR), and methylphenidate, versus placebo on attention, memory, and behavior in children with ADHD and allergic rhinitis. STUDY B assessed NGF response to cetirizine and methylphenidate treatment in children with ADHD and allergic rhinitis.
(§2) The individuals chosen to be a part of these studies had the following characteristics:
(§3) All subjects were randomized into one of four treatment groups as follows:
(§4) 1) cetirizine alone: 10 mg po qam for 2 weeks;
(§5) 2) Combination of cetirizine and methylphenidate: 10 mg po qam RITALIN SR (20 mg if <65 kg; 40 mg if ≧65 kg) po qam for 2 weeks;
3) Methylphenidate alone: (20 mg if <65 kg; 40 mg if ≧65 kg) po qam for 2 weeks; and […]

[1] = tested on: children with ADHD and allergic rhinitis; assay: STUDY A: allergic rhinitis measures (rhinoconjunctivitis symptoms, RQLQ); conditions: children 8-18 years with ADHD and seasonal allergic rhinitis; po qam for 2 weeks
Protocol: as §1, §2, §3, §4, §5
(§6) 3) Methylphenidate alone: (20 mg if <65 kg; 40 mg if ≧65 kg) po qam for 2 weeks; and
1) Rhinoconjunctivitis Symptoms
2) Total Symptom Severity Complex, (TSSC)
3) Adolescent Rhinoconjunctivitis Quality of Life Questionnaire, (RQLQ)

[2] = tested on: children with ADHD and allergic rhinitis; assay: STUDY A: ADHD measures, Conners' Rating Scale t-scores; conditions: po qam for 2 weeks; for hyperactivity t-scores (FIG. 1): evaluation of the ADHD parameters
Protocol: as §1, §2, §3, §4, §5, §6
5) Conners' Rating Scale—Revised, (CRS)

Compound | serum NGF level versus placebo (NGF) | RQLQ emotional symptoms, change from baseline [1] | RQLQ nasal symptoms [1] | rhinoconjuctivitis quality of life scores [1] | hyperactivity t-scores (FIG. 1) [2] | parental Conner's report: ADHD score [2] | parental Conner's report: hyperactivity score [2] | parental Conner's report: inattention score [2] | parental Conner's report: oppositional score [2]
O=C(O)COCCN1CCN(C(c2ccccc2)c2ccc(Cl)cc2)CC1 (stereo not drawn) [cetirizine] | downregulated to the same extent | similar | methylphenidate had a superior effect compared to cetirizine | methylphenidate had a superior effect compared to cetirizine | no difference was noted | no difference was recorded | no difference was recorded | no difference was recorded | no difference was recorded
COC(=O)C(c1ccccc1)C1CCCCN1 (stereo not drawn) [methylphenidate] | downregulated to the same extent | similar | superior effect compared to cetirizine | superior effect compared to cetirizine | no difference was noted | no difference was recorded | no difference was recorded | no difference was recorded | no difference was recorded
